The structures appear in SMILES notation.

This assay deals with T1, HCMV polymerase (Human cytomegalovirus, UniProt P08546).
T1 construct: made in house; host or cells: recombinant baculovirus-infected SF-9 insect cells
T1 sequence (P08546 whole entry): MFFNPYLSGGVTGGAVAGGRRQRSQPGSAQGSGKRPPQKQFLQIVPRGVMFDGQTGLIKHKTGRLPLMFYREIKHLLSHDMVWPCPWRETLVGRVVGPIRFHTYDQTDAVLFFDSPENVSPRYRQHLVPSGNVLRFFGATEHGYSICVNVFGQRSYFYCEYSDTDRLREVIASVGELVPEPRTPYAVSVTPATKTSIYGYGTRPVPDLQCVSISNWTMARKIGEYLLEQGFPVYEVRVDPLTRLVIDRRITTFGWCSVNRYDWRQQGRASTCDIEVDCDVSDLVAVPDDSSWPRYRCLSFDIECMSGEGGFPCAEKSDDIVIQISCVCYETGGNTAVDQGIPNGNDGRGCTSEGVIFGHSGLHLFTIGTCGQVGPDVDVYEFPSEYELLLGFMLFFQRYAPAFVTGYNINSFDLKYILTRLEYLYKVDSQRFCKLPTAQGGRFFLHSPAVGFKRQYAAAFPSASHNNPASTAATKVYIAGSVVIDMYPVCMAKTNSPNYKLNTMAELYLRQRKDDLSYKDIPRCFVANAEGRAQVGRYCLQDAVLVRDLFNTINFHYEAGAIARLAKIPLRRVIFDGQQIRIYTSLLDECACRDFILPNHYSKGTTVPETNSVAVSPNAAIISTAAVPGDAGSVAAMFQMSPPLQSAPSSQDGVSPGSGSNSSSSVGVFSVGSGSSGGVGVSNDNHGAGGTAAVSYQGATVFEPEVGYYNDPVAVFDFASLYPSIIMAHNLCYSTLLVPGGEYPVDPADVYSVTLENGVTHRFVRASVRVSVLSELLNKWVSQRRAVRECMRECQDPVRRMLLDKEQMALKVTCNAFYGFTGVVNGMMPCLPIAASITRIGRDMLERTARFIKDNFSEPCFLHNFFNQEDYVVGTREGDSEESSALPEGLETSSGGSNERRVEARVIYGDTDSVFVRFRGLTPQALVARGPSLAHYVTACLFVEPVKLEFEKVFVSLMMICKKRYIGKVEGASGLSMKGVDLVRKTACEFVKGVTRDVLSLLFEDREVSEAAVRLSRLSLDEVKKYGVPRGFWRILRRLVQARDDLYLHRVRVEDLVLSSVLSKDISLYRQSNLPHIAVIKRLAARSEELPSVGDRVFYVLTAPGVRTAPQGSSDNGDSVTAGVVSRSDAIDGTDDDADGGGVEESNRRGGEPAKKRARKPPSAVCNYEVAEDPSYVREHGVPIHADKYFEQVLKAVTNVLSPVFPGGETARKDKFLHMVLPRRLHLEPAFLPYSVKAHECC
As to the kind of experiment: biochemical. The settings on record: HCMV polymerase; SPA; modified assay: compounds in 100% DMSO, 4.5 mM DTT. As for the experimental part:
The HCMV polymerase assay is performed using a scintillation proximity assay (SPA) as described in several references, such as N. D. Cook, et al., Pharmaceutical Manufacturing International, pages 49-53 (1992); K. Takeuchi, Laboratory Practice, September issue (1992); U.S. Pat. No. 4,568,649 (1986); which are incorporated by reference herein. Reactions are performed in 96-well plates. The assay is conducted in 100 μl volume with 5.4 mM HEPES (pH 7.5), 11.7 mM KCl, 4.5 mM MgCl2, 0.36 mg/ml BSA, and 90 nM ^3 H-dTTP. Assays are run with and without CHAPS, (3-[(3-Cholamidopropyl)dimethylammonio]-1-propane-sulfonate) at a final concentration of 2 mM. HCMV polymerase is diluted in enzyme dilution buffer containing 50% glycerol, 250 mM NaCl, 10 mM HEPES (pH 7.5), 100 μg/ml BSA, and 0.01% sodium azide. The HCMV polymerase, which is expressed in recombinant baculovirus-infected SF-9 cells and purified according to literature procedures, is added at 10% (or 10 μl) of the final reaction volume, i.e., 100 μl. Compounds are diluted in 50% DMSO and 10 μl are added to each well. Control wells contain an equivalent concentration of DMSO. Unless noted otherwise, reactions are initiated via the addition of 6 nM biotinylated poly(dA)-oligo(dT) template/primer to reaction mixtures containing the enzyme, substrate, and compounds of interest. Plates are incubated in a 25 C. or 37 C. H2 O bath and terminated via the addition of 40 μl/reaction of 0.5 M EDTA (pH 8) per well. Reactions are terminated within the time-frame during which substrate incorporation is linear and varied depending upon the enzyme and conditions used, i.e., 30 min. for HCMV polymerase. Ten μl of streptavidin-SPA beads (20 mg/ml in PBS/10% glycerol) are added following termination of the reaction. Plates are incubated 10 min. at 37 C., then equilibrated to room temperature, and counted on a Packard Topcount. Linear regressions are performed and IC50 's are calculated using computer software.
A modified version of the above HCMV polymerase assay is performed as described above, but with the following changes: Compounds are diluted in 100% DMSO until final dilution into assay buffer. In the previous assay, compounds are diluted in 50% DMSO. 4.5 mM dithiotherotol (DTT) is added to the polymerase buffer.
One may read the IC50 as the concentration needed to halve the response being measured. As to `C[S+]([O-])Cn1cc(C(=O)NCc2ccc(Cl)cc2)c(=O)c2cc(CN3CCOCC3)ccc21` (stereo not shown) [Example 79, N-(4-Chlorobenzyl)-1-[(methylsulfinyl)methyl]-6-(4-morpholinylmethyl)-4-oxo-1,4-dihydro-3-quinolinecarboxamide], the IC50 is 1100 nM. As for `CS(=O)(=O)Cn1cc(C(=O)NCc2ccc(Cl)cc2)c(=O)c2cc(CN3CCOCC3)ccc21` [Example 80, N-(4-Chlorobenzyl)-1-[(methylsulfonyl)methyl]-6-(4-morpholinylmethyl)-4-oxo-1,4-dihydro-3-quinolinecarboxamide], the figure is 1100 nM; as for `O=C(NCc1ccc(Cl)cc1)c1cn(C[S+]([O-])c2ccccc2)c2ccc(CN3CCOCC3)cc2c1=O` (stereo not shown) [Example 81, N-(4-Chlorobenzyl)-6-(4-morpholinylmethyl)-4-oxo-1-[(phenylsulfinyl)methyl]-1,4-dihydro-3-quinolinecarboxamide], 350 nM; as for `O=C(NCc1ccc(Cl)cc1)c1cn(CS(=O)(=O)c2ccccc2)c2ccc(CN3CCOCC3)cc2c1=O` [Example 82, N-(4-Chlorobenzyl)-6-(4-morpholinylmethyl)-4-oxo-1-[(phenylsulfonyl)methyl]-1,4-dihydro-3-quinolinecarboxamide], 530 nM. As for `COCCOCCn1cc(C(=O)NCc2ccc(Cl)cc2)c(=O)c2cc(CCCO)ccc21` [Example 83, N-(4-chlorobenzyl)-6-(3-hydroxypropyl)-1-[2-(2-methoxyethoxy)ethyl]-4-oxo-1,4-dihydro-3-quinolinecarboxamide], the figure is 600 nM. The molecule `COCCOCCn1cc(C(=O)NCc2ccc(Cl)cc2)c(=O)c2cc(CN3CCOCC3)ccc21` [Example 84] returned an IC50 of 1200 nM. The same measure for `COCCOCCn1cc(C(=O)NCc2ccc(Cl)cc2)c(=O)c2cc(CN3CCC(=O)CC3)ccc21` [Example 85, N-(4-Chlorobenzyl)-1-[2-(2-methoxyethoxy)ethyl]-4-oxo-6-[(4-oxo-1-piperidinyl)methyl]-1,4-dihydro-3-quinolinecarboxamide]: 6000 nM; for `COCCOCCn1cc(C(=O)NCc2ccc(Cl)cc2)c(=O)c2cc(CN(C)CC#N)ccc21` [Example 86, N-(4-Chlorobenzyl)-6-{[(cyanomethyl)(methyl)amino]methyl}-1-[2-(2-methoxyethoxy)ethyl]-4-oxo-1,4-dihydro-3-quinolinecarboxamide]: 2500 nM; for `COCCOCCn1cc(C(=O)NCc2ccc(Cl)cc2)c(=O)c2cc(CN3CC[C@@H](O)C3)ccc21` [Example 87, N-(4-Chlorobenzyl)-6-{[(3R)-3-hydroxypyrrolidinyl]methyl}-1-[2-(2-methoxyethoxy)ethyl]-4-oxo-1,4-dihydro-3-quinolinecarboxamide]: 4000 nM. `COCCOCCn1cc(C(=O)NCc2ccc(Cl)cc2)c(=O)c2cc(CN(C)[C@H](C)[C@@H](O)c3ccccc3)ccc21` [Example 88, N-(4-Chlorobenzyl)-6-{[[(1R,2S)-2-hydroxy-1-methyl-2-phenylethyl](methyl)amino]methyl}-1-[2-(2-methoxyethoxy)ethyl]-4-oxo-1,4-dihydro-3-quinolinecarboxamide] displayed an IC50 of 5900 nM. `COCCOCCn1cc(C(=O)NCc2ccc(Cl)cc2)c(=O)c2cc(CN(C)CC(O)c3ccccc3)ccc21` (stereo not shown) [Example 89, N-(4-Chlorobenzyl)-6-{[(2-hydroxy-2-phenylethyl)(methyl)amino]methyl}-1-[2-(2-methoxyethoxy)ethyl]-4-oxo-1,4-dihydro-3-quinoline-carboxamide]: the half-maximal inhibitory concentration (IC50) is 6700 nM. Molecule `COCCOCCn1cc(C(=O)NCc2ccc(Cl)cc2)c(=O)c2cc(CN(C)CC(O)c3ccc(O)cc3)ccc21` (stereo not shown) [Example 90, N-(4-Chlorobenzyl)-6-{[[2-hydroxy-2-(4-hydroxyphenyl)ethyl](methyl)amino]methyl}-1-[2-(2-methoxyethoxy)ethyl]-4-oxo-1,4-dihydro-3-quinolinecarboxamide] displayed a half-maximal inhibitory concentration (IC50) of 4400 nM. `CC(C)(C)OCCOCCn1cc(C(=O)NCc2ccc(Cl)cc2)c(=O)c2cc(CN3CCOCC3)ccc21` [Example 91, 1-{2-[2-(tert-Butoxy)ethoxy]ethyl}-N-(4-chlorobenzyl)-6-(4-morpholinylmethyl)-4-oxo-1,4-dihydro-3-quinolinecarboxamide] returned an IC50 of 2100 nM. `COCCOCCn1cc(C(=O)NCc2ccc(Cl)cc2)c(=O)c2cc(CSC)ccc21` [Example 93, N-(4-Chlorobenzyl)-1-[2-(2-methoxyethoxy)ethyl]-6-[(methylsulfanyl)methyl]-4-oxo-1,4-dihydro-3-quinolinecarboxamide]: the IC50 turned out to be 6200 nM. As for `Cn1cc(C(=S)NCc2ccc(Cl)cc2)c(=O)c2cc(C#CCO)ccc21` [Example 94, N-(4-chlorobenzyl)-6-(3-hydroxy-1-propynyl)-1-methyl4-oxo-1,4-dihydro-3-quinolinecarbothioamide], the figure is 770 nM. The same measure for `Cn1cc(C(=S)NCc2ccc(Cl)cc2)c(=O)c2cc(CN3CCOCC3)ccc21` [Example 95, N-(4-Chlorobenzyl)-1-methyl-6-(4-morpholinylmethyl)-4-oxo-1,4-dihydro-3-quinolinecarbothioamide]: 300 nM; for `Cn1cc(C(=O)NCc2ccc(Cl)cc2)c(=O)c2cccc(C#CCO)c21` [Example 96, N-(4-Chlorobenzyl)-8-(3-hydroxy-1-propynyl)-1-methyl-4-oxo-1,4-dihydro-3-quinolinecarboxamide]: 1000 nM. Turning to `Cn1cc(C(=O)NCc2ccc(Cl)cc2)c(=O)c2cccc(C#CCCO)c21` [Example 97, N-(4-Chlorobenzyl)-8-(4-hydroxy-1-butynyl)-1-methyl-4-oxo-1,4-dihydro-3-quinolinecarboxamide], the IC50 is 1500 nM. The same measure for `Cn1cc(C(=O)NCc2ccc(Cl)cc2)c(=O)c2cc(CC3CCOCC3)ccc21` [Example 98, N-(4-Chlorobenzyl)-1-methyl-4-oxo-6-(tetrahydro-2H-pyran-4-ylmethyl)-1,4-dihydro-3-quinolinecarboxamide]: 310 nM; for `Cn1cc(C(=O)NCc2ccc(Cl)cc2)c(=O)c2cc(CN3CC(=NO)C3)ccc21` [Example 99, N-(4-Chlorobenzyl)-6-{[3-(ydroxyimino)-1-azetidinyl]methyl}-1-methyl-4-oxo-1,4-dihydro-3-quinolinecarboxamide]: 8000 nM. As for `O=C(NCc1ccc(Cl)cc1)c1cn(CCOCCN2CCOCC2)c2ccc(CN3CCOCC3)cc2c1=O` [Example 100], the figure is 2900 nM; as for `O=C(NCc1ccc(Cl)cc1)c1cn(CSc2ccc(Cl)cc2)c2ccc(CN3CCOCC3)cc2c1=O` [Example 101, N-(4-Chlorobenzyl)-1-([(4-chlorophenyl)sulfanyl]methyl)-6-(4-morpholinylmethyl)-4-oxo-1,4-dihydro-3-quinolinecarboxamide], 300 nM. `O=C(NCc1ccc(Cl)cc1)c1cn(C[S+]([O-])c2ccc(Cl)cc2)c2ccc(CN3CCOCC3)cc2c1=O` (stereo not shown) [Example 102]: the IC50 is 590 nM. The same measure for `O=C(NCc1ccc(Cl)cc1)c1cn(CS(=O)(=O)c2ccc(Cl)cc2)c2ccc(CN3CCOCC3)cc2c1=O` [Example 103, N-(4-Chlorobenzyl)-1-([(4-chlorophenyl)sulfonyl]methyl)-6-(4-morpholinylmethyl)-4-oxo-1,4-dihydro-3-quinolinecarboxamide]: 830 nM; for `O=C(NCc1ccc(Cl)cc1)c1cn(COc2ccc(Cl)cc2)c2ccc(CN3CCOCC3)cc2c1=O` [Example 104, N-(4-Chlorobenzyl)-1-[(4-chlorophenoxy)methyl]-6-(4-morpholinylmethyl)-4-oxo-1,4-dihydro-3-quinolinecarboxamide]: 1600 nM; for `COCCOCn1cc(C(=O)NCc2ccc(Cl)cc2)c(=O)c2cc(CN3CCOCC3)ccc21` [Example 105, N-(4-Chlorobenzyl)-1-[(2-methoxyethoxy)methyl]-6-(4-morpholinylmethyl)-4-oxo-1,4-dihydro-3-quinolinecarboxamide]: 1300 nM. For the molecule `O=C(OCCOCn1cc(C(=O)NCc2ccc(Cl)cc2)c(=O)c2cc(CN3CCOCC3)ccc21)c1ccccc1` [Example 106, 2-{[3-{[(4-Chlorobenzyl)amino]carbonyl}-6-(4-morpholinylmethyl)-4-oxo-1(4H)-quinolinyl]methoxy}ethyl benzoate], it took 3100 nM to reach half-maximal inhibition (IC50). The same measure for `O=C(NCc1ccc(Cl)cc1)c1cn(COCCO)c2ccc(CN3CCOCC3)cc2c1=O` [Example 107]: 840 nM.

(Values after patent publication US6248739A, “Quinolinecarboxamides as antiviral agents” (Pharmacia & Upjohn Company, priority 1999, dated 2001).)
